ChEMBL document CHEMBL1201862, “PubChem BioAssay data set” (2004)
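48-hour exposure; five concentrations; linearly interpolated endpoints. Here, GI50 denotes the concentration required for 50% inhibition of growth.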 Active and inactive are the calls of the source. Rule as the data show it: active = GI50 up to about 1.1 µM and inactive = higher.

Experiments:
Assay in all cases: inhibition of tumour cell growth, NCI panel, 48 h
[1] = system: COLO 205
[2] = system: UO-31
[3] = system: DU-145
[4] = system: CAKI-1
[5] = system: OVCAR-4
[6] = system: LOX IMVI
[7] = system: A549
[8] = system: MDA-N
[9] = system: HOP-92
[10] = system: OVCAR-3
[11] = system: NCI-H522
[12] = system: HCT-116
[13] = system: SN12C
[14] = system: NCI/ADR-RES
[15] = system: SF-295
[16] = system: 786-0
[17] = system: NCI-H23
[18] = system: SK-OV-3
[19] = system: PC-3

Measured: GI50

C=[N+](CNC(=O)CNC(=O)C(Cc1ccccc1)NC(=O)OC(C)(C)C)C(=O)CNC(=O)C(Cc1ccccc1)NC(=O)OC(C)(C)C (stereo unspecified)
inactive: [1] > 100 µM | [2] > 100 µM | [3] > 100 µM | [4] > 100 µM | [5] > 100 µM | [6] > 100 µM | [7] > 100 µM | [8] > 100 µM | [9] > 100 µM | [10] > 100 µM | [11] > 100 µM | [12] > 100 µM | [13] > 100 µM | [14] > 100 µM | [15] > 100 µM | [16] > 100 µM | [17] > 100 µM | [18] > 100 µM | [19] > 100 µM

N#Cc1c(O)c(/N=N/c2ccc(Cl)cc2)c(=O)n2c1[nH]c1ccccc12
inactive: [1] 52.2 µM | [2] 49.9 µM | [3] 38.5 µM | [4] 78.3 µM | [5] 67 µM | [6] > 100 µM | [7] 44.9 µM | [8] 38.7 µM | [9] 26.1 µM | [10] 26.4 µM | [11] 33.3 µM | [12] 37.9 µM | [13] 46.5 µM | [14] 44 µM | [15] 36.9 µM | [16] 48.6 µM | [17] 46 µM | [18] 94 µM | [19] 36.2 µM

C=CC[C@]1(C2=NC(C)(C)CO2)c2ccccc2-c2ccccc2[C@H]1C(C)=O
inactive: [1] 4.41 µM | [2] 14.1 µM | [3] 14.4 µM | [4] 10.5 µM | [5] 15.6 µM | [6] 10.6 µM | [7] 9.31 µM | [8] 2.74 µM | [9] 16.4 µM | [10] 3.13 µM | [11] 2.61 µM | [12] 5.4 µM | [13] 15.6 µM | [14] 4 µM | [15] 4.61 µM | [16] 9.71 µM | [17] 12.7 µM | [18] 9.31 µM | [19] 6.41 µM

COc1ccc([S+]([O-])Cc2cc(OC)ccc2OC)cc1 (stereo unspecified)
inactive: [1] > 100 µM | [2] > 100 µM | [3] > 100 µM | [4] > 100 µM | [5] > 100 µM | [6] > 100 µM | [7] > 100 µM | [8] > 100 µM | [9] > 100 µM | [10] > 100 µM | [11] > 100 µM | [12] > 100 µM | [13] > 100 µM | [14] > 100 µM | [15] > 100 µM | [16] > 100 µM | [17] > 100 µM | [18] > 100 µM | [19] > 100 µM
